Assay results: patent publication US11214594B2, “Antimicrobial peptide having synergistic antibacterial effect with antibiotics on multidrug resistant bacteria, and use thereof” (priority 2016, dated 2022)
≈ marks a conversion by molar mass, not a printed value. Read-outs that look alike come from different tables or passages of the source. Where a SMILES comes first, the peptide text is derived from it. [ ]: non-standard residue; d: D form.

What was measured:
MDRST 8007 = assay: Minimal inhibitory concentration (MIC), single agent; format: cell-based, Salmonella typhimurium; details: agent alone
Procedure, shortened: (§1)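 Broth microdilution in MH medium: bacterial strains diluted to 2×10^6 CFU were mixed with equal volumes of peptide serially diluted twofold in MH medium.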

MDREC 1229 [1] = assay: MIC of antibiotic during combined treatment with antimicrobial peptide; format: cell-based, Escherichia coli
Procedure, shortened: (§2)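 Antibiotic MIC came from antibiotic dilutions added to bacteria (2×10^6 CFU/ml, MH medium) already combined with peptide serially diluted 2:1 from its own MIC. Swapping the roles of the two agents gave the peptide MIC.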

MDRAB 12036 = format: cell-based, Acinetobacter baumannii
Procedure, shortened: as §1

B. subtilis = assay: microbe, parasite or virus in culture; format: cell-based, Bacillus subtilis
Procedure, shortened: as §1

MDREC 1229 [2] = format: cell-based, Escherichia coli
Procedure, shortened: as §2

E. coli [3] = format: cell-based, Escherichia coli; details: E. coli
Procedure, shortened: as §2

E. coli [4] = assay: MIC of antibiotic during combined treatment with antimicrobial peptide; format: cell-based, Escherichia coli
Procedure, shortened: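 Antibiotic diluted in MH medium, dispensed per well with peptide; setup repeated with roles reversed; MIC read per combination.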

[5] = peptide treatment concentration 1 μg/ml
[6] = peptide treatment concentration 2 μg/ml
[7] = peptide treatment concentration 4 μg/ml
[8] = peptide treatment concentration 6 μg/ml
[9] = peptide treatment concentration 8 μg/ml
[10] = peptide treatment concentration 16 μg/ml
[11] = peptide treatment concentration 32 μg/ml
[12] = peptide treatment concentration 64 μg/ml

Structure (SMILES): CC[C@H](C)[C@H](NC(=O)[C@H](CCCCN)NC(=O)[C@H](Cc1c[nH]c2ccccc12)NC(=O)[C@@H](N)CCCNC(=N)N)C(=O)N[C@@H](Cc1ccccc1)C(=O)N[C@@H](CCCCN)C(=O)N[C@@H](CCCCN)C(=O)N[C@H](C(=O)N[C@H](CC(C)C)C(=O)N[C@@H](CCCCN)C(=O)N[C@@H](CC(C)C)C(=O)N[C@@H](CC(C)C)C(=O)N[C@@H](Cc1c[nH]cn1)C(=O)N[C@@H](CCC(=O)O)C(=O)N[C@@H](Cc1ccccc1)C(=O)N[C@@H](CCCCN)C(=O)N[C@@H](CCCCN)C(=O)N[C@@H](Cc1ccccc1)C(N)=O)[C@@H](C)CC [PapMA-23, RWK IFK KIl KLL HEF KKF-NH2] (H-RWKIFKKI[dL]KLLHEFKKF-NH2; N-terminus assumed)
- Minimal inhibitory concentration MIC (MDRST 8007): 64 µg/mL (≈ 26.6 µM)
- Antibiotic MIC, Erythromycin (MDREC 1229 [1]; [5]): 128 µg/mL
- Antibiotic MIC, Linezolid (MDREC 1229 [1]; [5]): >128 µg/mL
- Antibiotic MIC, Vancomycin (MDREC 1229 [1]; [5]): >128 µg/mL
- Antibiotic MIC, Erythromycin (MDREC 1229 [1]; [6]): 64 µg/mL
- Antibiotic MIC, Linezolid (MDREC 1229 [1]; [6]): 128 µg/mL
- Antibiotic MIC, Vancomycin (MDREC 1229 [1]; [6]): >128 µg/mL
- Antibiotic MIC, Erythromycin (MDREC 1229 [1]; [7]): 32 µg/mL
- Antibiotic MIC, Linezolid (MDREC 1229 [1]; [7]): 64 µg/mL
- Antibiotic MIC, Vancomycin (MDREC 1229 [1]; [7]): >128 µg/mL
- Antibiotic MIC, Erythromycin (MDREC 1229 [1]; [8]): 8 µg/mL
- Antibiotic MIC, Linezolid (MDREC 1229 [1]; [8]): 32 µg/mL
- Antibiotic MIC, Vancomycin (MDREC 1229 [1]; [8]): 128 µg/mL
- Antibiotic MIC, Erythromycin (MDREC 1229 [1]; [9]): 4 µg/mL
- Antibiotic MIC, Linezolid (MDREC 1229 [1]; [9]): 32 µg/mL
- Antibiotic MIC, Vancomycin (MDREC 1229 [1]; [9]): 32 µg/mL
- Antibiotic MIC, Erythromycin (MDREC 1229 [1]; [10]): 1 µg/mL
- Antibiotic MIC, Linezolid (MDREC 1229 [1]; [10]): 16 µg/mL
- Antibiotic MIC, Vancomycin (MDREC 1229 [1]; [10]): 16 µg/mL
- Antibiotic MIC, Erythromycin (MDREC 1229 [1]; [11]): 0 µg/mL
- Antibiotic MIC, Linezolid (MDREC 1229 [1]; [11]): 0 µg/mL
- Antibiotic MIC, Vancomycin (MDREC 1229 [1]; [11]): 0 µg/mL
- Antibiotic MIC, Erythromycin (MDREC 1229 [1]; [12]): 0 µg/mL
- Antibiotic MIC, Linezolid (MDREC 1229 [1]; [12]): 0 µg/mL
- Antibiotic MIC, Vancomycin (MDREC 1229 [1]; [12]): 0 µg/mL
- Minimal inhibitory concentration MIC (MDRAB 12036): 32 µg/mL (≈ 13.3 µM)
- Minimal inhibitory concentration MIC (B. subtilis): >128 µg/mL
- Peptide MIC during treatment with antibiotic (MDREC 1229 [2]; erythromycin 32 μg/ml (Conc./MIC 1/8)): 4 µg/mL
- Peptide MIC during treatment with antibiotic (MDREC 1229 [2]; erythromycin 64 μg/ml (Conc./MIC 1/4)): 2 µg/mL
- Peptide MIC during treatment with antibiotic (MDREC 1229 [2]; erythromycin […] (Conc./MIC 1)): 0 µg/mL
- Peptide MIC during treatment with antibiotic (MDREC 1229 [2]; erythromycin […] (Conc./MIC 1/2)): 1 µg/mL
- Peptide MIC during treatment with antibiotic (MDREC 1229 [2]; linezolid 64 μg/ml (Conc./MIC 1/8)): 4 µg/mL
- Peptide MIC during treatment with antibiotic (MDREC 1229 [2]; linezolid 512 μg/ml (Conc./MIC 1)): 0 µg/mL
- Peptide MIC during treatment with antibiotic (MDREC 1229 [2]; linezolid […] (Conc./MIC 1/2)): 1 µg/mL
- Peptide MIC during treatment with antibiotic (MDREC 1229 [2]; linezolid […] (Conc./MIC 1/4)): 2 µg/mL
- Peptide MIC during treatment with antibiotic (MDREC 1229 [2]; vancomycin 512 μg/ml (Conc./MIC 1/2)): 2 µg/mL
- Peptide MIC during treatment with antibiotic (MDREC 1229 [2]; vancomycin 1024 μg/ml (Conc./MIC 1)): 1 µg/mL
- Peptide MIC during treatment with antibiotic (MDREC 1229 [2]; vancomycin […] (Conc./MIC 1/4)): 4 µg/mL
- Peptide MIC during treatment with antibiotic (MDREC 1229 [2]; vancomycin […] (Conc./MIC 1/8)): 8 µg/mL
- Peptide MIC (E. coli [3]; with Erythromycin […] (Conc./MIC 1)): 0 µg/mL
- Peptide MIC (E. coli [3]; with Linezolid […] (Conc./MIC 1)): 0 µg/mL
- Peptide MIC (E. coli [3]; with Vancomycin 1024 μg/ml (Conc./MIC 1)): 0 µg/mL
- Synergistic effect of antibacterial activity with existing antibiotics compared with PapMA-1 (E. coli [4]; E. coli and MDREC1229): level similar to that of the PapMA-1 peptide
- Antibiotic MIC, Erythromycin (E. coli [4]; E. coli, erythromycin combined with peptide at 1 μg/ml): 128 µg/mL
- Antibiotic MIC, Erythromycin (E. coli [4]; E. coli, erythromycin combined with peptide at 2 μg/ml): 64 µg/mL
- Antibiotic MIC, Erythromycin (E. coli [4]; E. coli, erythromycin combined with peptide at 4 μg/ml): 16 µg/mL
- Antibiotic MIC, Erythromycin (E. coli [4]; E. coli, erythromycin combined with peptide at 6 μg/ml): 4 µg/mL
- Antibiotic MIC, Erythromycin (E. coli [4]; E. coli, erythromycin combined with peptide at 8 μg/ml): 2 µg/mL
- Antibiotic MIC, Erythromycin (E. coli [4]; E. coli, erythromycin combined with peptide at 16 μg/ml): 0.5 µg/mL
- Antibiotic MIC, Erythromycin (E. coli [4]; E. coli, erythromycin combined with peptide at 32 μg/ml): 0 µg/mL
- Antibiotic MIC, Erythromycin (E. coli [4]; E. coli, erythromycin combined with peptide at 64 μg/ml): 0 µg/mL
- Antibiotic MIC, Linezolid (E. coli [4]; E. coli, linezolid combined with peptide at 1 μg/ml): >128 µg/mL
- Antibiotic MIC, Linezolid (E. coli [4]; E. coli, linezolid combined with peptide at 2 μg/ml): 128 µg/mL
- Antibiotic MIC, Linezolid (E. coli [4]; E. coli, linezolid combined with peptide at 4 μg/ml): 64 µg/mL
- Antibiotic MIC, Linezolid (E. coli [4]; E. coli, linezolid combined with peptide at 6 μg/ml): 32 µg/mL
- Antibiotic MIC, Linezolid (E. coli [4]; E. coli, linezolid combined with peptide at 8 μg/ml): 16 µg/mL
- Antibiotic MIC, Linezolid (E. coli [4]; E. coli, linezolid combined with peptide at 16 μg/ml): 16 µg/mL
- Antibiotic MIC, Linezolid (E. coli [4]; E. coli, linezolid combined with peptide at 32 μg/ml): 0 µg/mL
- Antibiotic MIC, Linezolid (E. coli [4]; E. coli, linezolid combined with peptide at 64 μg/ml): 0 µg/mL
- Antibiotic MIC, Vancomycin (E. coli [4]; E. coli, vancomycin combined with peptide at 1 μg/ml): >128 µg/mL
